Data published in patent US6534524B1, “Indazole compounds and pharmaceutical compositions for inhibiting protein kinases, and methods for their use” (Agouron Pharmaceuticals, Inc., priority 1999, dated 2003).
pIC50: −log10 of the molar value. Where two headings read alike, the source gives them in different places.

Tested on: human umbilical vein endothelial cells (HUVEC)
Assay: HUVEC proliferation assay (VEGF-stimulated, MTT);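 on % inhibition of the proliferation of HUVEC: relative to VEGF-stimulated control minus starvation-medium baseline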
Assay type: cell-based
Conditions: for % inhibition: Library III, HUVEC proliferation, nominal concentration of 0.5 nM; for % inhibition / % inhibition of the proliferation of HUVEC: crude reaction mixtures; for pIC50: + albumin, read-out: HUVEC + albumin IC50
[1] = Library II, Y=S, 0.5 mM (column head; text: nominal 0.5 nM)
[2] = Library II, Y=S, 2 mM (column head; text: nominal 2 nM)
[3] = Library I, Y = CO, nominal concentration of 10 nM
[4] = Library I, Y = NH, nominal concentration of 10 nM
[5] = Library I, Y = O, nominal concentration of 10 nM

O=C(Nc1ccc(Cl)c(Cl)c1)c1ccccc1Sc1ccc2c(/C=C/c3ccccn3)n[nH]c2c1
% inhibition: 8%

O=C(Nc1ncc(Cl)cc1Cl)c1ccccc1Sc1ccc2c(/C=C/c3ccccn3)n[nH]c2c1
% inhibition: 4%

CCCCCC(C)NC(=O)c1ccccc1Sc1ccc2c(/C=C/c3ccccn3)n[nH]c2c1 (stereo not drawn)
% inhibition of the proliferation of HUVEC [1]: −1%
% inhibition of the proliferation of HUVEC [2]: 14%

O=C(Nc1ccc(Cl)cc1CO)c1ccccc1Sc1ccc2c(/C=C/c3ccccn3)n[nH]c2c1
% inhibition: 48%

CSCCCNC(=O)c1ccccc1Sc1ccc2c(/C=C/c3ccccn3)n[nH]c2c1
% inhibition of the proliferation of HUVEC [1]: 44%
% inhibition of the proliferation of HUVEC [2]: 100%

O=C(NC1CCN(Cc2ccccc2)CC1)c1ccccc1Sc1ccc2c(/C=C/c3ccccn3)n[nH]c2c1
% inhibition of the proliferation of HUVEC [1]: 44%
% inhibition of the proliferation of HUVEC [2]: 19%

COc1ccc(NC(=O)c2ccccc2Sc2ccc3c(/C=C/c4ccccn4)n[nH]c3c2)cn1
% inhibition: −20%

O=C(Nc1ccc2cn[nH]c2c1)c1ccccc1Sc1ccc2c(/C=C/c3ccccn3)n[nH]c2c1
% inhibition: 7%

O=C(Nc1ccc(F)cc1)c1ccccc1Sc1ccc2c(/C=C/c3ccccn3)n[nH]c2c1
% inhibition: −1%

O=C(NC1CC1)c1ccccc1Sc1ccc2c(/C=C/c3ccccn3)n[nH]c2c1 [drawing 1069]
% inhibition: 29%

O=C(NCC1(O)CCCCC1)c1ccccc1Sc1ccc2c(/C=C/c3ccccn3)n[nH]c2c1 [drawing 1197]
% inhibition: 2%

O=C(NCc1cccc2ccccc12)c1ccccc1Sc1ccc2c(/C=C/c3ccccn3)n[nH]c2c1
% inhibition: 5%

O=C(Nc1cccc(OC(F)(F)F)c1)c1ccccc1Sc1ccc2c(/C=C/c3ccccn3)n[nH]c2c1
% inhibition: 5%

CC(CCCC(C)(C)O)NC(=O)c1ccccc1Sc1ccc2c(/C=C/c3ccccn3)n[nH]c2c1 (stereo not drawn)
% inhibition: 3%

O=C(NCCCN1CCCCCC1)c1ccccc1Sc1ccc2c(/C=C/c3ccccn3)n[nH]c2c1
% inhibition of the proliferation of HUVEC [1]: 25%
% inhibition of the proliferation of HUVEC [2]: −5%

CCCCCc1ccc(NC(=O)c2ccccc2Sc2ccc3c(/C=C/c4ccccn4)n[nH]c3c2)cc1
% inhibition: 13%

O=C(Nc1ccccc1-n1cccc1)c1ccccc1Sc1ccc2c(/C=C/c3ccccn3)n[nH]c2c1
% inhibition: −7%

COCCNC(=O)c1ccccc1Sc1ccc2c(/C=C/c3ccccn3)n[nH]c2c1
% inhibition of the proliferation of HUVEC [1]: 21%
% inhibition of the proliferation of HUVEC [2]: 60%

Cc1noc(NC(=O)c2ccccc2Sc2ccc3c(/C=C/c4ccccn4)n[nH]c3c2)c1C
% inhibition of the proliferation of HUVEC [1]: 15%
% inhibition of the proliferation of HUVEC [2]: 36%

O=C(Nc1cnccn1)c1ccc2c(-c3nc4ccccc4[nH]3)n[nH]c2c1 [drawing 595]
% inhibition of the proliferation of HUVEC [3]: −11%
% inhibition of the proliferation of HUVEC [4]: −7%
% inhibition of the proliferation of HUVEC [5]: 52%

O=C(NCC1CCCO1)c1ccccc1Sc1ccc2c(/C=C/c3ccccn3)n[nH]c2c1 (stereo not drawn)
% inhibition of the proliferation of HUVEC [1]: 23%
% inhibition of the proliferation of HUVEC [2]: 44%

NC(=O)c1cccc(NC(=O)c2ccccc2Sc2ccc3c(/C=C/c4ccccn4)n[nH]c3c2)c1
% inhibition: 4%

O=C(Nc1ncnc2[nH]cnc12)c1ccccc1Sc1ccc2c(/C=C/c3ccccn3)n[nH]c2c1
% inhibition: 18%

Cc1ccnc(NC(=O)c2ccccc2Sc2ccc3c(/C=C/c4ccccn4)n[nH]c3c2)c1
% inhibition: −6%

CSCCNC(=O)c1ccccc1Sc1ccc2c(/C=C/c3ccccn3)n[nH]c2c1
% inhibition: 18%

COc1ccc(CNC(=O)c2ccccc2Sc2ccc3c(/C=C/c4ccccn4)n[nH]c3c2)c(OC)c1
% inhibition: 13%

COc1ccc(NC(=O)c2ccccc2Sc2ccc3c(/C=C/c4ccccn4)n[nH]c3c2)cc1OC
% inhibition: 1%

CC(C)(C)c1ccc(O)c(NC(=O)c2ccccc2Sc2ccc3c(/C=C/c4ccccn4)n[nH]c3c2)c1
% inhibition: −3%

CC(=O)NCCNC(=O)c1ccccc1Sc1ccc2c(/C=C/c3ccccn3)n[nH]c2c1
% inhibition of the proliferation of HUVEC [1]: 15%
% inhibition of the proliferation of HUVEC [2]: 27%

O=C(Nc1ccc2c(O)cccc2c1)c1ccccc1Sc1ccc2c(/C=C/c3ccccn3)n[nH]c2c1
% inhibition: −26%

Cn1nc(C2CC2)cc1NC(=O)c1ccccc1Sc1ccc2c(/C=C/c3ccccn3)n[nH]c2c1
% inhibition: −47%

CCNC(=O)c1ccccc1Sc1ccc2c(/C=C/c3ccccn3)n[nH]c2c1 [drawing 696]
% inhibition of the proliferation of HUVEC [1]: 16%
% inhibition of the proliferation of HUVEC [2]: 17%

COC(=O)c1cc(NC(=O)c2ccc3c(-c4nc5ccccc5[nH]4)n[nH]c3c2)ccc1O [drawing 610]
% inhibition of the proliferation of HUVEC [1]: 39%
% inhibition of the proliferation of HUVEC [2]: 15%

NC(=O)c1ccccc1Sc1ccc2c(/C=C/c3ccccn3)n[nH]c2c1 [H-X1]
% inhibition of the proliferation of HUVEC [1]: 9%

CC(C)(C)c1ccc(NC(=O)c2ccccc2Sc2ccc3c(/C=C/c4ccccn4)n[nH]c3c2)cc1
% inhibition: −1%

O=C1CSC(NC(=O)c2ccccc2Sc2ccc3c(/C=C/c4ccccn4)n[nH]c3c2)=N1
% inhibition of the proliferation of HUVEC [1]: 9%
% inhibition of the proliferation of HUVEC [2]: −9%

O=C(NC1CCC(O)CC1)c1ccccc1Sc1ccc2c(C=Cc3ccccn3)n[nH]c2c1 (stereo not drawn)
% inhibition of the proliferation of HUVEC [1]: 23%
% inhibition of the proliferation of HUVEC [2]: 6%

N#CC(NC(=O)c1ccccc1Sc1ccc2c(/C=C/c3ccccn3)n[nH]c2c1)c1ccc(F)cc1 (stereo not drawn)
% inhibition: −20%

CCCC(CO)NC(=O)c1ccccc1Sc1ccc2c(/C=C/c3ccccn3)n[nH]c2c1 (stereo not drawn)
% inhibition of the proliferation of HUVEC [1]: 44%
% inhibition of the proliferation of HUVEC [2]: 40%

CC(C)(C)c1cc(NC(=O)c2ccccc2Sc2ccc3c(/C=C/c4ccccn4)n[nH]c3c2)n[nH]1
% inhibition: −21%

6-(3-Benzamidobenzoyl)-3-E-[N-(4H-1,2,4-triazol-4-yl)iminomethyl]-1H-indazole [Example 42(e)]
pIC50: 7.02

CNCCNC(=O)c1ccccc1Sc1ccc2c(/C=C/c3ccccn3)n[nH]c2c1 [Example 35(gg), 6-[2-(2-(Methylamino)ethylcarbamoyl)phenylsulfanyl]-3-E-[2-(pyridin-2-yl)ethenyl]-1H-indazole]
pIC50 (Homo sapiens, HUVEC): < 7.00

O=C(c1ccc2c(-c3nc4ccccc4[nH]3)n[nH]c2c1)N1CCCC1
% inhibition of the proliferation of HUVEC [3]: 8%
% inhibition of the proliferation of HUVEC [4]: 0%
% inhibition of the proliferation of HUVEC [5]: 23%

CC(C)CC(CO)NC(=O)c1ccccc1Sc1ccc2c(C=Cc3ccccn3)n[nH]c2c1 (stereo not drawn) [drawing 1021]
% inhibition: −2%

O=C(CNC(=O)c1ccccc1Sc1ccc2c(/C=C/c3ccccn3)n[nH]c2c1)NO
% inhibition of the proliferation of HUVEC [1]: 5%
% inhibition of the proliferation of HUVEC [2]: 9%

O=C(NCCc1ccc(F)cc1)c1ccccc1Sc1ccc2c(/C=C/c3ccccn3)n[nH]c2c1
% inhibition: 3%

COc1cc(NC(=O)c2ccccc2Sc2ccc3c(/C=C/c4ccccn4)n[nH]c3c2)cc(OC)c1
% inhibition: −60%

CCC(CO)(CO)NC(=O)c1ccccc1Sc1ccc2c(/C=C/c3ccccn3)n[nH]c2c1
% inhibition: 61%

O=C(NC1(CO)CCCC1)c1ccccc1Sc1ccc2c(/C=C/c3ccccn3)n[nH]c2c1
% inhibition: −5%

O=C(Nc1cccc(F)c1)c1ccccc1Sc1ccc2c(/C=C/c3ccccn3)n[nH]c2c1
% inhibition: −11%

COC(=O)c1ccc(C)c(NC(=O)c2ccccc2Sc2ccc3c(/C=C/c4ccccn4)n[nH]c3c2)c1
% inhibition: −9%
